In PMC5218480 (PLoS ONE, 2017):

Tested on: MV-4-11 cells
Experiment: Gene expression microarray analysis (Affymetrix PrimeView) and GSEA
Assay type: cell-based, human
Parameters: RFU PODN (11730768_x_at) / Fold change /veh PODN (11730768_x_at) / RFU LINC00158 (11744669_a_at) / Fold change /veh LINC00158 (11744669_a_at) / RFU DUSP10 (11751237_a_at) / Fold change /veh DUSP10 (11751237_a_at) / RFU ID3 (11757404_x_at) / Fold change /veh ID3 (11757404_x_at) / RFU PLEKHG5 (11737974_s_at) / Fold change /veh PLEKHG5 (11737974_s_at) / RFU LRRC4B (11730491_at) / Fold change /veh LRRC4B (11730491_at) / RFU GIMAP4 (11747438_a_at) / Fold change /veh GIMAP4 (11747438_a_at) / RFU KRT8 (11758183_x_at) / Fold change /veh KRT8 (11758183_x_at) / RFU CNN1 (11734310_a_at) / Fold change /veh CNN1 (11734310_a_at) / RFU VPS37D (11726825_at) / Fold change /veh VPS37D (11726825_at) / RFU C10orf10 (11716522_x_at) / Fold change /veh C10orf10 (11716522_x_at) / RFU KIR2DL2 /// KIR2DL4 /// KIR2DL5A /// KIR2DL5B /// KIR2DS1 /// KIR2DS2 /// KIR2DS3 /// KIR2DS4 /// KIR3DL3 /// KIR3DL3 /// KIR3DS1 (11738374_at) / Fold change /veh KIR2DL2 /// KIR2DL4 /// KIR2DL5A /// KIR2DL5B /// KIR2DS1 /// KIR2DS2 /// KIR2DS3 /// KIR2DS4 /// KIR3DL3 /// KIR3DL3 /// KIR3DS1 (11738374_at) / RFU C1QL1 (11718748_at) / Fold change /veh C1QL1 (11718748_at) / RFU TMPRSS4 (11747572_a_at) / Fold change /veh TMPRSS4 (11747572_a_at) / RFU HAMP (11756126_x_at) / Fold change /veh HAMP (11756126_x_at) / RFU RNFT2 (11725882_a_at) / Fold change /veh RNFT2 (11725882_a_at) / RFU NR4A2 (11747474_a_at) / Fold change /veh NR4A2 (11747474_a_at) / RFU ABCC12 (11746883_a_at) / Fold change /veh ABCC12 (11746883_a_at) / RFU TMEM136 (11760407_x_at) / Fold change /veh TMEM136 (11760407_x_at) / RFU CLDN22 /// WWC2 (11732394_at) / Fold change /veh CLDN22 /// WWC2 (11732394_at) / RFU HLA-DPB1 (11760878_x_at) / Fold change /veh HLA-DPB1 (11760878_x_at) / RFU SPINT1 (11716480_a_at) / Fold change /veh SPINT1 (11716480_a_at) / RFU GAP43 (11754022_s_at) / Fold change /veh GAP43 (11754022_s_at) / RFU A4GNT (11735810_at) / Fold change /veh A4GNT (11735810_at) / RFU PRB3 (11715151_x_at) / Fold change /veh PRB3 (11715151_x_at) / RFU TUBB4B (11761932_at) / Fold change /veh TUBB4B (11761932_at) / RFU CAPN14 (11732068_a_at) / Fold change /veh CAPN14 (11732068_a_at) / RFU TMCC2 (11721928_a_at) / Fold change /veh TMCC2 (11721928_a_at) / RFU IRGQ (11745062_a_at) / Fold change /veh IRGQ (11745062_a_at) / RFU FAM174B (11720279_a_at) / Fold change /veh FAM174B (11720279_a_at) / RFU TMPRSS4 (11748680_a_at) / Fold change /veh TMPRSS4 (11748680_a_at) / RFU FAM212B (11763350_a_at) / Fold change /veh FAM212B (11763350_a_at) / RFU PLEKHG5 (11743358_a_at) / Fold change /veh PLEKHG5 (11743358_a_at) / RFU ZSCAN30 (11745921_a_at) / Fold change /veh ZSCAN30 (11745921_a_at) / RFU CMKLR1 (11741424_a_at) / Fold change /veh CMKLR1 (11741424_a_at) / RFU LOC101060620 /// MAPK8IP1 (11723275_at) / Fold change /veh LOC101060620 /// MAPK8IP1 (11723275_at) / RFU SPTSSB (11747773_x_at) / Fold change /veh SPTSSB (11747773_x_at) / RFU PRSS12 (11739890_at) / Fold change /veh PRSS12 (11739890_at) / RFU BIN1 (11741810_x_at) / Fold change /veh BIN1 (11741810_x_at) / RFU WNT11 (11732464_a_at) / Fold change /veh WNT11 (11732464_a_at) / RFU C10orf10 (11716521_a_at) / Fold change /veh C10orf10 (11716521_a_at) / RFU C5orf56 (11738089_at) / Fold change /veh C5orf56 (11738089_at) / RFU CYB561 (11721691_x_at) / Fold change /veh CYB561 (11721691_x_at) / RFU ANKRD19P (11752326_a_at) / Fold change /veh ANKRD19P (11752326_a_at) / RFU OR2T12 /// OR2T33 /// OR2T8 (11738714_s_at) / Fold change /veh OR2T12 /// OR2T33 /// OR2T8 (11738714_s_at) / RFU VCAN (11748164_a_at) / Fold change /veh VCAN (11748164_a_at) / RFU JSRP1 (11732532_at) / Fold change /veh JSRP1 (11732532_at) / RFU KRTAP10-11 (11738290_x_at) / Fold change /veh KRTAP10-11 (11738290_x_at) / RFU MYO3A (11730013_a_at) / Fold change /veh MYO3A (11730013_a_at) / RFU EBF3 (11725865_a_at) / Fold change /veh EBF3 (11725865_a_at) / RFU CAMK2N1 (11719241_x_at) / Fold change /veh CAMK2N1 (11719241_x_at) / RFU C5orf56 (11738088_a_at) / Fold change /veh C5orf56 (11738088_a_at) / RFU OLFML3 (11715873_a_at) / Fold change /veh OLFML3 (11715873_a_at) / RFU LOC100653217 /// NTM (11731650_a_at) / Fold change /veh LOC100653217 /// NTM (11731650_a_at) / RFU MAPK11 (11762145_a_at) / Fold change /veh MAPK11 (11762145_a_at) / RFU FIZ1 (11724087_x_at) / Fold change /veh FIZ1 (11724087_x_at) / RFU OASL (11726364_x_at) / Fold change /veh OASL (11726364_x_at) / RFU SOX15 (11748057_x_at) / Fold change /veh SOX15 (11748057_x_at) / RFU CD79A (11719716_a_at) / Fold change /veh CD79A (11719716_a_at) / RFU HIST1H1D (11736915_at) / Fold change /veh HIST1H1D (11736915_at) / RFU CASKIN2 (11723855_a_at) / Fold change /veh CASKIN2 (11723855_a_at) / RFU LOC730098 (11760151_x_at) / Fold change /veh LOC730098 (11760151_x_at) / RFU OR4N2 (11742367_at) / Fold change /veh OR4N2 (11742367_at) / RFU PRRT2 (11749266_a_at) / Fold change /veh PRRT2 (11749266_a_at) / RFU SNX32 (11753110_a_at) / Fold change /veh SNX32 (11753110_a_at) / RFU CDHR5 (11726645_a_at) / Fold change /veh CDHR5 (11726645_a_at) / RFU RCAN1 (11760418_a_at) / Fold change /veh RCAN1 (11760418_a_at) / RFU FAM167A (11723789_a_at) / Fold change /veh FAM167A (11723789_a_at) / RFU FAM26E (11764081_at) / Fold change /veh FAM26E (11764081_at) / RFU ISYNA1 (11749810_s_at) / Fold change /veh ISYNA1 (11749810_s_at) / RFU ACY1 (11761880_at) / Fold change /veh ACY1 (11761880_at) / RFU 11764098_at / Fold change /veh 11764098_at / RFU SAMD14 (11745864_x_at) / Fold change /veh SAMD14 (11745864_x_at) / RFU NPB (11741838_a_at) / Fold change /veh NPB (11741838_a_at) / RFU TMPRSS6 (11731388_a_at) / Fold change /veh TMPRSS6 (11731388_a_at) / RFU KRTAP10-2 (11738614_at) / Fold change /veh KRTAP10-2 (11738614_at) / RFU ARHGAP8 /// PRR5-ARHGAP8 (11727945_x_at) / Fold change /veh ARHGAP8 /// PRR5-ARHGAP8 (11727945_x_at) / RFU KRTAP5-7 /// NADSYN1 (11734609_at) / Fold change /veh KRTAP5-7 /// NADSYN1 (11734609_at) / RFU RASL12 (11751679_a_at) / Fold change /veh RASL12 (11751679_a_at) / RFU CDKN2B (11736163_a_at) / Fold change /veh CDKN2B (11736163_a_at) / RFU PRF1 (11729649_at) / Fold change /veh PRF1 (11729649_at) / RFU, ZNF638 /// ZNF638-IT1 / Fold change vs veh, ZNF638 /// ZNF638-IT1 / RFU, PANK3 / Fold change vs veh, PANK3 / RFU, SH3YL1 / Fold change vs veh, SH3YL1 / RFU, ZEB2 / Fold change vs veh, ZEB2 / RFU, NRIP1 / Fold change vs veh, NRIP1 / RFU, PTTG1IP / Fold change vs veh, PTTG1IP / RFU, CAPN2 / Fold change vs veh, CAPN2 / RFU, MED14 / Fold change vs veh, MED14 / RFU, SNORA58 / Fold change vs veh, SNORA58 / RFU, C1orf63 / Fold change vs veh, C1orf63 / RFU, LRRFIP1 / Fold change vs veh, LRRFIP1 / RFU, NDUFAF7 / Fold change vs veh, NDUFAF7 / RFU, SLC12A2 / Fold change vs veh, SLC12A2 / RFU, IBTK / Fold change vs veh, IBTK / RFU, ESF1 / Fold change vs veh, ESF1 / Fold change vs veh, TMEM50B / RFU, TAOK1 / Fold change vs veh, TAOK1 / RFU, ACBD3 / Fold change vs veh, ACBD3 / RFU, TMA16 / Fold change vs veh, TMA16 / RFU, RWDD3 / Fold change vs veh, RWDD3 / RFU, BCAT1 / Fold change vs veh, BCAT1 / RFU, EDEM3 / Fold change vs veh, EDEM3 / RFU, TMEM33 / Fold change vs veh, TMEM33 / RFU, WDR75 / Fold change vs veh, WDR75 / RFU, AHCTF1 / Fold change vs veh, AHCTF1 / RFU, TFRC / Fold change vs veh, TFRC / RFU, ZDHHC17 / Fold change vs veh, ZDHHC17 / RFU, NOM1 / Fold change vs veh, NOM1 / RFU, ARL8B / Fold change vs veh, ARL8B / RFU, ZBTB11 / Fold change vs veh, ZBTB11 / RFU, TAMM41 / Fold change vs veh, TAMM41 / RFU, KIAA1704 /// LOC100996395 / Fold change vs veh, KIAA1704 /// LOC100996395 / RFU, ING1 / Fold change vs veh, ING1 / RFU, TRMT61B / Fold change vs veh, TRMT61B / RFU, FUBP3 / Fold change vs veh, FUBP3 / RFU, TP53 / Fold change vs veh, TP53 / RFU, TNKS2 / Fold change vs veh, TNKS2 / RFU, ZFP14 / Fold change vs veh, ZFP14 / RFU, ACTR2 / Fold change vs veh, ACTR2 / RFU, PPP3R1 / Fold change vs veh, PPP3R1 / RFU, PIK3R1 / Fold change vs veh, PIK3R1 / RFU, HNRNPA1 / Fold change vs veh, HNRNPA1 / RFU, RNF170 / Fold change vs veh, RNF170 / RFU, ZNF28 / Fold change vs veh, ZNF28 / RFU, RNGTT / Fold change vs veh, RNGTT / RFU, OGT / Fold change vs veh, OGT / RFU, BRD1 / Fold change vs veh, BRD1 / RFU, MARS / Fold change vs veh, MARS / RFU, ZNF655 / Fold change vs veh, ZNF655 / RFU, FAHD1 / Fold change vs veh, FAHD1 / RFU, BDP1 / Fold change vs veh, BDP1 / RFU, LRRCC1 / Fold change vs veh, LRRCC1 / RFU, ARID1A / Fold change vs veh, ARID1A / RFU, ZNF146 / Fold change vs veh, ZNF146 / RFU, ZNF330 / Fold change vs veh, ZNF330 / RFU, GPN3 / Fold change vs veh, GPN3 / RFU, C9orf123 / Fold change vs veh, C9orf123 / RFU, N4BP2L2 / Fold change vs veh, N4BP2L2 / RFU, ARFIP1 / Fold change vs veh, ARFIP1 / RFU, FAM179B / Fold change vs veh, FAM179B / RFU, BCL10 / Fold change vs veh, BCL10 / RFU, UHRF1BP1L / Fold change vs veh, UHRF1BP1L / RFU, BET1 / Fold change vs veh, BET1 / RFU, CNOT2 / Fold change vs veh, CNOT2 / RFU, ZNF268 / Fold change vs veh, ZNF268 / Fold change vs veh, ZNF507 / RFU, DGCR2 / Fold change vs veh, DGCR2 / RFU, WDSUB1 / Fold change vs veh, WDSUB1 / Fold change vs veh, HSP90B1 /// MIR3652 / RFU, ADSS / Fold change vs veh, ADSS / RFU, GK / Fold change vs veh, GK / RFU, ZNF148 / Fold change vs veh, ZNF148 / RFU, TAF9 / Fold change vs veh, TAF9 / RFU, SLC1A5 / Fold change vs veh, SLC1A5 / RFU, SLMO2 / Fold change vs veh, SLMO2 / RFU, ABCC4 / Fold change vs veh, ABCC4 / RFU, LOC101060439 /// RAP1B / Fold change vs veh, LOC101060439 /// RAP1B / RFU, RFX7 / Fold change vs veh, RFX7 / RFU, GTPBP10 / Fold change vs veh, GTPBP10 / RFU, CNEP1R1 / Fold change vs veh, CNEP1R1 / RFU, BIVM-ERCC5 /// ERCC5 / Fold change vs veh, BIVM-ERCC5 /// ERCC5 / RFU, ILF3 / Fold change vs veh, ILF3 / RFU 11762660_at / Fold change /veh 11762660_at / RFU VCAN (11757783_s_at) / Fold change /veh VCAN (11757783_s_at) / RFU DDX43 (11728927_at) / Fold change /veh DDX43 (11728927_at) / RFU KRT8 (11758188_x_at) / Fold change /veh KRT8 (11758188_x_at) / RFU NKD1 (11759106_at) / Fold change /veh NKD1 (11759106_at) / RFU SRD5A1 (11742802_a_at) / Fold change /veh SRD5A1 (11742802_a_at) / RFU TPSAB1 /// TPSB2 (11721975_s_at) / Fold change /veh TPSAB1 /// TPSB2 (11721975_s_at) / RFU GSTM3 (11746129_a_at) / Fold change /veh GSTM3 (11746129_a_at) / RFU IL23R (11737362_x_at) / Fold change /veh IL23R (11737362_x_at) / RFU TMEM51 (11727254_a_at) / Fold change /veh TMEM51 (11727254_a_at) / RFU PIWIL2 (11732686_x_at) / Fold change /veh PIWIL2 (11732686_x_at) / RFU ORM1 (11744905_x_at) / Fold change /veh ORM1 (11744905_x_at) / RFU CCDC152 (11743942_at) / Fold change /veh CCDC152 (11743942_at) / RFU ECM1 (11717891_a_at) / Fold change /veh ECM1 (11717891_a_at) / RFU IL23R (11748794_a_at) / Fold change /veh IL23R (11748794_a_at) / RFU TNFAIP8L3 (11732012_x_at) / Fold change /veh TNFAIP8L3 (11732012_x_at) / RFU MBOAT4 (11741988_at) / Fold change /veh MBOAT4 (11741988_at) / RFU 11764193_at / Fold change /veh 11764193_at / RFU TMEM53 (11763286_at) / Fold change /veh TMEM53 (11763286_at) / RFU MAGEB2 (11727129_at) / Fold change /veh MAGEB2 (11727129_at) / RFU TMEM200A (11744735_a_at) / Fold change /veh TMEM200A (11744735_a_at) / RFU CCDC152 (11751479_a_at) / Fold change /veh CCDC152 (11751479_a_at) / RFU FAM211A (11726209_a_at) / Fold change /veh FAM211A (11726209_a_at) / RFU RGS16 (11746705_a_at) / Fold change /veh RGS16 (11746705_a_at) / RFU VCAN (11755009_s_at) / Fold change /veh VCAN (11755009_s_at) / RFU RHOB (11743442_s_at) / Fold change /veh RHOB (11743442_s_at) / RFU RGS16 (11720943_a_at) / Fold change /veh RGS16 (11720943_a_at) / RFU RGS16 (11720944_at) / Fold change /veh RGS16 (11720944_at) / RFU, VPS4B / Fold change vs veh, VPS4B / RFU, CREB1 / Fold change vs veh, CREB1 / RFU, DNAJC13 / Fold change vs veh, DNAJC13 / RFU, GNAQ / Fold change vs veh, GNAQ / RFU, CDK5R1 / Fold change vs veh, CDK5R1 / RFU, ZRANB3 / Fold change vs veh, ZRANB3 / RFU, CUL4A / Fold change vs veh, CUL4A / RFU, CCNY / Fold change vs veh, CCNY / RFU, UFL1 / Fold change vs veh, UFL1 / RFU, COG3 / Fold change vs veh, COG3 / RFU, DIAPH2 / Fold change vs veh, DIAPH2 / RFU, SKA2 / Fold change vs veh, SKA2 / RFU, AFF3 / Fold change vs veh, AFF3 / RFU, LMF1 / Fold change vs veh, LMF1 / RFU, IPO11 / Fold change vs veh, IPO11 / RFU, DFFB / Fold change vs veh, DFFB / RFU, FOXP1 / Fold change vs veh, FOXP1 / RFU, CARD8 / Fold change vs veh, CARD8 / RFU, STRN3 / Fold change vs veh, STRN3 / RFU, ADK / Fold change vs veh, ADK / RFU, RASSF2 / Fold change vs veh, RASSF2 / RFU, WIPF1 / Fold change vs veh, WIPF1 / RFU, LARP1B / Fold change vs veh, LARP1B / RFU, RASA1 / Fold change vs veh, RASA1 / RFU, RB1 / Fold change vs veh, RB1 / RFU, PPFIA1 / Fold change vs veh, PPFIA1 / RFU, MAT2A / Fold change vs veh, MAT2A / RFU, CCT5 / Fold change vs veh, CCT5 / RFU, WDR92 / Fold change vs veh, WDR92 / RFU, CUX1 / Fold change vs veh, CUX1 / RFU, TTC7A / Fold change vs veh, TTC7A / RFU, TMEM135 / Fold change vs veh, TMEM135 / RFU, DEPTOR / Fold change vs veh, DEPTOR / RFU, CPM / Fold change vs veh, CPM / RFU, DNAJB6 / Fold change vs veh, DNAJB6 / RFU, CACNA2D3 / Fold change vs veh, CACNA2D3 / RFU, DTX4 / Fold change vs veh, DTX4 / RFU, TFCP2 / Fold change vs veh, TFCP2 / RFU, GMCL1 /// GMCL1P1 / Fold change vs veh, GMCL1 /// GMCL1P1 / RFU, AEBP2 / Fold change vs veh, AEBP2 / RFU, SNHG1 /// SNORD22 /// SNORD25 /// SNORD26 /// SNORD27 /// SNORD28 /// SNORD29 /// SNORD31 / Fold change vs veh, SNHG1 /// SNORD22 /// SNORD25 /// SNORD26 /// SNORD27 /// SNORD28 /// SNORD29 /// SNORD31 / Fold change (Aza/veh), C12orf56 (ProbeSet 11735607_a_at) / Fold change (ACY-1035/veh), C12orf56 (ProbeSet 11735607_a_at) / Fold change (Aza/veh), FGFR1OP (ProbeSet 11751329_s_at) / Fold change (ACY-1035/veh), FGFR1OP (ProbeSet 11751329_s_at) / Fold change (Aza/veh), VPS36 (ProbeSet 11739960_a_at) / Fold change (ACY-1035/veh), VPS36 (ProbeSet 11739960_a_at) / RFU SYPL1 (11715823_x_at) / Fold change /veh SYPL1 (11715823_x_at) / RFU IGFBP7 (11715501_s_at) / Fold change /veh IGFBP7 (11715501_s_at) / RFU REEP3 (11722064_at) / Fold change /veh REEP3 (11722064_at) / RFU IGLL1 (11728026_x_at) / Fold change /veh IGLL1 (11728026_x_at): dose or concentration left out as unconfirmed
Conditions: MV-4-11 cells, 48 hours

## Nc1ncn([C@@H]2O[C@H](CO)[C@@H](O)[C@H]2O)c(=O)n1 [azacitidine]
  RFU NPB (11741838_a_at): 80.08 RFU
